The text below walks through data of patent US11957759B1, “Rapidly accelerated fibrosarcoma (RAF) degrading compounds and associated methods of use” (Arvinas Operations, Inc., priority 2022, dated 2024).

In one experiment the target is T1, B-RAF V600E (Homo sapiens, UniProt P15056, V600E).
T1 construct: expressed in transfected cells; host or cells: T-Rex 293 cells (Invitrogen #R71007)
The experiment in a line: Target protein degradation, assay C: T-Rex 293 cells, HA-BRAF_V600E, 384 well format. Format: cell-based. The following applies: T-Rex 293 HA-BRAF_V600E cells, 24 hours, Examples 83-269; for DC50: Assay C; for Dmax: T-REx-293, Assay C. The method, boiled down: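 After 24 h exposure to an 11-point 1:3 series (300 nM–5 pM, 0.5% DMSO), fixed T-Rex 293 cells carrying HA-BRAF V600E (induced with 1 ng/mL doxycycline) were stained anti-HA and imaged. DC50 and Dmax were derived from BRAF intensity relative to control, and cytotoxicity from nuclear counts.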

In another experiment the target is T2, B-RAF G466V (Homo sapiens, UniProt P15056, G466V).
T2 construct: expressed in transfected cells; host or cells: T-Rex 293 cells (Invitrogen #R71007)
Put plainly: Target protein degradation, assay D: T-Rex 293 cells, HA-BRAF_G466V, 384 well format. Format: cell-based. The following applies: T-Rex 293 HA-BRAF_G466V cells, 24 hours, Examples 83-269; for DC50: Assay D; for Dmax: T-REx-293, Assay D. The method in brief: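 Degradation measured by high-content imaging of anti-HA immunofluorescence in fixed T-Rex 293 cells carrying inducible HA-BRAF G466V (1 ng/mL doxycycline), after 24 h PROTAC exposure at 37 °C over 300 nM–5 pM (1:3, 11 points, 0.5% DMSO). Outputs DC50 and Dmax as % of control; nuclei counts against DMSO wells gauge toxicity.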

Each structure is given as a SMILES string. Where only a bound is given, the exact number is not on record here.

T2 sequence (P15056 whole entry G466V): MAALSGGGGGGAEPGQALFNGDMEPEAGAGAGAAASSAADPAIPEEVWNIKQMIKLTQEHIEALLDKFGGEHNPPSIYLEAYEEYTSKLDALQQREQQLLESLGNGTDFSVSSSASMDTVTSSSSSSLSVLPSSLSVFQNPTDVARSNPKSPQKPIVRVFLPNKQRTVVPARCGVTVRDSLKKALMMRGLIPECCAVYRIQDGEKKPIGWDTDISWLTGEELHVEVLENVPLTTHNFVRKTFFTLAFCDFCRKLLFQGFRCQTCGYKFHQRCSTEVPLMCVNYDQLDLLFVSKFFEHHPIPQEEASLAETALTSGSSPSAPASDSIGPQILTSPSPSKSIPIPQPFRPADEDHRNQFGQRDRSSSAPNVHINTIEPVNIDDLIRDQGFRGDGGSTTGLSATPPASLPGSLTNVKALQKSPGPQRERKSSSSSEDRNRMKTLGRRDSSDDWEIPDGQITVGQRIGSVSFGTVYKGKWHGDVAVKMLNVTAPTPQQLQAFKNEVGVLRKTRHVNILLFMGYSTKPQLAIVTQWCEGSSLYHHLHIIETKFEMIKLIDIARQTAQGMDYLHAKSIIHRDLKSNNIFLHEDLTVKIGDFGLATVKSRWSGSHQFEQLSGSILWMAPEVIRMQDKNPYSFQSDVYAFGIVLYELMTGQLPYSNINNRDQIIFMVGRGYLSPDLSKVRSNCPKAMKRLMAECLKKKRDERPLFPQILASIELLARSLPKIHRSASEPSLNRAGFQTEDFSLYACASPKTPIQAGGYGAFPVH
T1 sequence (P15056 whole entry V600E): as the sequence (P15056 whole entry G466V) above, with V466G, V600E counted along it

For the molecule `N#Cc1c(NS(=O)(=O)N2CC[C@@H](F)C2)ccc(F)c1Oc1ccc2ncn(-c3cnc(N4CCN(c5ccc6c(c5)CN(C5CCC(=O)NC5=O)C6=O)CC4)nc3)c(=O)c2c1` (stereo partly drawn) [Example 127, (3R)-N-(2-cyano-3-{[3-(2-{4-[2-(2,6-dioxopiperidin-3-yl)-1-oxo-2,3-dihydro-1H-isoindol-5-yl]piperazin-1-yl}pyrimidin-5-yl)-4-oxo-3,4-dihydroquinazolin-6-yl]oxy}-4-fluorophenyl)-3-fluoropyrrolidine-1-sulfonamide], at B-RAF V600E, the 50% degradation concentration (DC50) was 50 to 500 nM and the Dmax was 35 to 70%. For the same molecule, the DC50 at B-RAF G466V was greater than 30 nM.
For the molecule `N#Cc1c(NS(=O)(=O)N2CC[C@@H](F)C2)ccc(F)c1Oc1ccc2ncn(-c3cnc(N4CCC(CN5CCC6(CC5)CCN(c5ccc7c(c5)C(=O)N(C5CCC(=O)NC5=O)C7=O)CC6)CC4)nc3)c(=O)c2c1` (stereo partly drawn) [Example 129, (3R)-N-{2-cyano-3-[(3-{2-[4-({9-[2-(2,6-dioxopiperidin-3-yl)-1,3-dioxo-2,3-dihydro-1H-isoindol-5-yl]-3,9-diazaspiro[5.5]undecan-3-yl}methyl)piperidin-1-yl]pyrimidin-5-yl}-4-oxo-3,4-dihydroquinazolin-6-yl)oxy]-4-fluorophenyl}-3-fluoropyrrolidine-1-sulfonamide], on B-RAF V600E, the DC50 lay within 50 to 500 nM and the Dmax lay within 35 to 70%. At B-RAF G466V, this molecule registered a DC50 of 1 to 10 nM and a Dmax of 35 to 70%.
`N#Cc1c(NS(=O)(=O)N2CC[C@@H](F)C2)ccc(F)c1Oc1ccc2ncn(-c3cnc(N4CCCC4CC4CCN(c5ccc6c(c5)C(=O)N(C5CCC(=O)NC5=O)C6=O)CC4)nc3)c(=O)c2c1` (stereo partly drawn) [Example 130, (3R)-N-{2-cyano-3-[(3-{2-[2-({1-[2-(2,6-dioxopiperidin-3-yl)-1,3-dioxo-2,3-dihydro-1H-isoindol-5-yl]piperidin-4-yl}methyl)pyrrolidin-1-yl]pyrimidin-5-yl}-4-oxo-3,4-dihydroquinazolin-6-yl)oxy]-4-fluorophenyl}-3-fluoropyrrolidine-1-sulfonamide] yielded a DC50 on B-RAF V600E greater than 500 nM. At B-RAF G466V, this molecule yielded a DC50 of 10 to 30 nM and a Dmax of no more than 35%.
On B-RAF V600E, `N#Cc1c(NS(=O)(=O)N2CC[C@@H](F)C2)ccc(F)c1Oc1ccc2ncn(-c3cnc(N4CCC(CN5CCC6(CC5)CN(c5cccc7c5CN(C5CCC(=O)NC5=O)C7=O)C6)CC4)nc3)c(=O)c2c1` (stereo partly drawn) [Example 131, (3R)-N-{2-cyano-3-[(3-{2-[4-({2-[2-(2,6-dioxopiperidin-3-yl)-1-oxo-2,3-dihydro-1H-isoindol-4-yl]-2,7-diazaspiro[3.5]nonan-7-yl}methyl)piperidin-1-yl]pyrimidin-5-yl}-4-oxo-3,4-dihydroquinazolin-6-yl)oxy]-4-fluorophenyl}-3-fluoropyrrolidine-1-sulfonamide] displayed a half-maximal degradation concentration (DC50) of 50 to 500 nM and a Dmax of 35 to 70%. On B-RAF G466V, this molecule yielded a DC50 of 1 to 10 nM and a Dmax of no more than 35%.
In the same order, the values of `N#Cc1c(NS(=O)(=O)N2CC[C@@H](F)C2)ccc(F)c1Oc1ccc2ncn(-c3cnc(N4CCC(CN5CC6(CCN(c7ccc8c(c7)CN(C7CCC(=O)NC7=O)C8=O)CC6)C5)CC4)nc3)c(=O)c2c1` (stereo partly drawn) [Example 132, (3R)-N-{2-cyano-3-[(3-{2-[4-({7-[2-(2,6-dioxopiperidin-3-yl)-1-oxo-2,3-dihydro-1H-isoindol-5-yl]-2,7-diazaspiro[3.5]nonan-2-yl}methyl)piperidin-1-yl]pyrimidin-5-yl}-4-oxo-3,4-dihydroquinazolin-6-yl)oxy]-4-fluorophenyl}-3-fluoropyrrolidine-1-sulfonamide] are 50 to 500 nM, 35 to 70%, no more than 1 nM and 35 to 70%.
In the same order, the values of `N#Cc1c(NS(=O)(=O)N2CC[C@@H](F)C2)ccc(F)c1Oc1ccc2ncn(-c3cnc(N4CCC(CN5CC6(C5)CN(c5ccc7c(c5)C(=O)N(C5CCC(=O)NC5=O)C7=O)C6)CC4)nc3)c(=O)c2c1` (stereo partly drawn) [Example 133, (3R)-N-{2-cyano-3-[(3-{2-[4-({6-[2-(2,6-dioxopiperidin-3-yl)-1,3-dioxo-2,3-dihydro-1H-isoindol-5-yl]-2,6-diazaspiro[3.3]heptan-2-yl}methyl)piperidin-1-yl]pyrimidin-5-yl}-4-oxo-3,4-dihydroquinazolin-6-yl)oxy]-4-fluorophenyl}-3-fluoropyrrolidine-1-sulfonamide] are 50 to 500 nM, 35 to 70%, 1 to 10 nM and 35 to 70%.
In the same order, the values of `N#Cc1c(NS(=O)(=O)N2CC[C@@H](F)C2)ccc(F)c1Oc1ccc2ncn(-c3cnc(N4CC5(CN(CC6CCN(c7ccc8c(c7)C(=O)N(C7CCC(=O)NC7=O)C8=O)CC6)C5)C4)nc3)c(=O)c2c1` (stereo partly drawn) [Example 134, (3R)-N-{2-cyano-3-[(3-(2-[6-({1-[2-(2,6-dioxopiperidin-3-yl)-1,3-dioxo-2,3-dihydro-1H-isoindol-5-yl]piperidin-4-yl}methyl)-2,6-diazaspiro[3.3]heptan-2-yl]pyrimidin-5-yl}-4-oxo-3,4-dihydroquinazolin-6-yl)oxy]-4-fluorophenyl}-3-fluoropyrrolidine-1-sulfonamide] are 50 to 500 nM, 35 to 70%, 1 to 10 nM and 35 to 70%.
As to `N#Cc1c(NS(=O)(=O)N2CC[C@@H](F)C2)ccc(F)c1Oc1ccc2ncn(-c3ccc(N4CCC(c5ccc6c(c5)C(=O)N(C5CCC(=O)NC5=O)C6=O)CC4)nc3)c(=O)c2c1` (stereo partly drawn) [Example 135, (3R)-N-(2-cyano-3-{[3-(6-{4-[2-(2,6-dioxopiperidin-3-yl)-1,3-dioxo-2,3-dihydro-1H-isoindol-5-yl]piperidin-1-yl}pyridin-3-yl)-4-oxo-3,4-dihydroquinazolin-6-yl]oxy}-4-fluorophenyl)-3-fluoropyrrolidine-1-sulfonamide], the DC50 on B-RAF V600E is greater than 500 nM; on B-RAF G466V, greater than 30 nM.
On to `N#Cc1c(NS(=O)(=O)N2CC[C@@H](F)C2)ccc(F)c1Oc1ccc2ncn(-c3ccc(N4CCC(c5ccc6c(c5)CN(C5CCC(=O)NC5=O)C6=O)CC4)nc3)c(=O)c2c1` (stereo partly drawn) [Example 136, (3R)-N-(2-cyano-3-{[3-(6-{4-[2-(2,6-dioxopiperidin-3-yl)-1-oxo-2,3-dihydro-1H-isoindol-5-yl]piperidin-1-yl}pyridin-3-yl)-4-oxo-3,4-dihydroquinazolin-6-yl]oxy}-4-fluorophenyl)-3-fluoropyrrolidine-1-sulfonamide], for which, at B-RAF V600E, the DC50 was in the range of 5 to 50 nM and the Dmax was no more than 35%. On B-RAF G466V, the DC50 fell in the range of 1 to 10 nM and the Dmax was in the range of 35 to 70%.
With `N#Cc1c(NS(=O)(=O)N2CC[C@@H](F)C2)ccc(F)c1Oc1ccc2ncn(-c3ccc(N4CCC(CN5CCC(Oc6cccc7c6C(=O)N(C6CCC(=O)NC6=O)C7=O)CC5)CC4)nc3)c(=O)c2c1` (stereo partly drawn) [Example 137, (3R)-N-(2-cyano-3-{[3-(6-{4-[(4-{[2-(2,6-dioxopiperidin-3-yl)-1,3-dioxo-2,3-dihydro-1H-isoindol-4-yl]oxy}piperidin-1-yl)methyl]piperidin-1-yl}pyridin-3-yl)-4-oxo-3,4-dihydroquinazolin-6-yl]oxy}-4-fluorophenyl)-3-fluoropyrrolidine-1-sulfonamide], the DC50 on B-RAF V600E was greater than 500 nM. At B-RAF G466V, this molecule displayed a DC50 greater than 30 nM and a Dmax of no more than 35%.
Turning to `COc1cc(N2CCN(CC3CCN(c4ccc(-n5cnc6ccc(Oc7c(F)ccc(NS(=O)(=O)N8CC[C@@H](F)C8)c7C#N)cc6c5=O)cn4)CC3)CC2)cc2c1C(=O)N(C1CCC(=O)NC1=O)C2=O` (stereo partly drawn) [Example 138, (3R)-N-{2-cyano-3-[(3-{6-[4-({4-[2-(2,6-dioxopiperidin-3-yl)-7-methoxy-1,3-dioxo-2,3-dihydro-1H-isoindol-5-yl]piperazin-1-yl}methyl)piperidin-1-yl]pyridin-3-yl}-4-oxo-3,4-dihydroquinazolin-6-yl)oxy]-4-fluorophenyl}-3-fluoropyrrolidine-1-sulfonamide], the half-maximal degradation concentration (DC50) on B-RAF V600E lay within 50 to 500 nM; on B-RAF G466V it was 1 to 10 nM. Moreover, the Dmax on B-RAF V600E and on B-RAF G466V was no more than 35% each time.
In the case of `COc1cc(N2CCN(c3ccc(-n4cnc5ccc(Oc6c(F)ccc(NS(=O)(=O)N7CC[C@@H](F)C7)c6C#N)cc5c4=O)cn3)CC2)cc2c1C(=O)N(C1CCC(=O)NC1=O)C2=O` (stereo partly drawn) [Example 139, (3R)-N-(2-cyano-3-{[3-(6-{4-[2-(2,6-dioxopiperidin-3-yl)-7-methoxy-1,3-dioxo-2,3-dihydro-1H-isoindol-5-yl]piperazin-1-yl}pyridin-3-yl)-4-oxo-3,4-dihydroquinazolin-6-yl]oxy}-4-fluorophenyl)-3-fluoropyrrolidine-1-sulfonamide], the DC50 on B-RAF V600E was 5 to 50 nM; at B-RAF G466V, greater than 30 nM. At B-RAF V600E, the Dmax was no more than 35%.
As to `N#Cc1c(NS(=O)(=O)N2CC[C@@H](F)C2)ccc(F)c1Oc1ccc2ncn(-c3ccc(N4CCN(CC5CCN(c6ccc(F)c(C(=O)NC7CCC(=O)NC7=O)c6)CC5)CC4)nc3)c(=O)c2c1` (stereo partly drawn) [Example 140, 5-(4-{[4-(5-{6-[2-cyano-6-fluoro-3-({[(3R)-3-fluoropyrrolidin-1-yl]sulfonyl}amino)phenoxy]-4-oxo-3,4-dihydroquinazolin-3-yl}pyridin-2-yl)piperazin-1-yl]methyl}piperidin-1-yl)-N-(2,6-dioxopiperidin-3-yl)-2-fluorobenzamide], on B-RAF V600E, the DC50 lay in the range of 50 to 500 nM and the Dmax is no more than 35%. In addition, the DC50 on B-RAF G466V is greater than 30 nM.
